This passage reports Ki and GI50 results from patent US11596639B2, “Substituted indole Mcl-1 inhibitors” (Vanderbilt University, priority 2016, dated 2023).

Like-named read-outs stand apart in the source and are kept apart here.

In one test the target is Mcl-1 (Homo sapiens (Human), UniProt Q07820). The experiment in a line: Fluorescence polarization anisotropy (FPA) competition assay, FITC-Bak or FITC-Bim BH3 peptide. To be noted: read-out: Ki for Inhibition of Mcl-1 by FPA assay. It is filed as binding. On the technique in general: Polarisation of emitted light reports the rotation of a fluorescent probe.
Chain of Mcl-1 (Q07820 172-327): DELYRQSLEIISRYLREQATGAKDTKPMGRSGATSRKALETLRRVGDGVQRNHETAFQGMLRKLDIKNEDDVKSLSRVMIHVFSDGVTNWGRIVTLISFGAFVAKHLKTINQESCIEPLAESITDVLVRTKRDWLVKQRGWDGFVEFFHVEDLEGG
Test [1] deals with H929 human cancer cell lines. The experiment in a line: Cellular viability / proliferation (Cell TiterGlo, 72 h). It is filed as cell-based. In outline:
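1,000 cells/well, 10% FBS medium; compound added at 24 h, 2-fold dilutions from 50 μM top, DMSO <1% final. 72 h exposure, CellTiterGlo 30 min RT dark, luminescence read. IC50 by 4-parameter fit.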
In general terms: ATP-based viability assays read luminescence as a measure of living cells.

The mark [2] stands for this setting: Homo sapiens, NCI-H929, 72 h, read-out: GI50 on cellular proliferation of H929 human cancer cell lines, H929 cells, 72 h, Cell TiterGlo, 10% FBS.
Where [3] appears, read: H929 cells, 72 h, Cell TiterGlo, 10% FBS, read-out: GI50 on cellular proliferation of H929 human cancer cell lines.

Regarding `Cc1cc(OCCCc2c3n(c4c(-c5c(C)nn(C)c5C)c(Cl)ccc24)[C@H](C)CN(c2cn(C)c4cc(C(=N)NO)ccc24)C3=O)cc(C)c1Cl` [Example 335, (R)-3-(7-Chloro-10-(3-(4-chloro-3,5-dimethylphenoxy)propyl)-4-methyl-1-oxo-6-(1,3,5-trimethyl-1H-pyrazol-4-yl)-3,4-dihydropyrazino[1,2-a]indol-2(1H)-yl)-N-hydroxy-1-methyl-1H-indole-6-carboximidamide], the Ki at Mcl-1 turned out to be 0.0045 µM. Also, the GI50 in test [1] (setting [2]) was 0.91 µM.
As for `Cc1cc(N2C[C@@H](C)n3c(c(CCCOc4cc(C)c(Cl)c(C)c4)c4ccc(Cl)c(-c5c(C)nn(C)c5C)c43)C2=O)c2c(c1)c(C)c(C(=O)O)n2C` [Example 336, (R)-7-(7-Chloro-10-(3-(4-chloro-3,5-dimethylphenoxy)propyl)-4-methyl-1-oxo-6-(1,3,5-trimethyl-1H-pyrazol-4-yl)-3,4-dihydropyrazino[1,2-a]indol-2(1H)-yl)-1,3,5-trimethyl-1H-indole-2-carboxylic acid], at Mcl-1, the Ki is under 0.001 µM. Besides, the GI50 in test [1] (setting [2]) came to 0.25 µM.
`Cc1nnc(-c2ccc3c(c2)c(N2C[C@@H](C)n4c(c(CCCOc5cc(C)c(Cl)c(C)c5)c5ccc(Cl)c(-c6c(C)nn(C)c6C)c54)C2=O)cn3C)o1` [Example 337, (R)-7-Chloro-10-(3-(4-chloro-3,5-dimethylphenoxy)propyl)-4-methyl-2-(1-methyl-5-(5-methyl-1,3,4-oxadiazol-2-yl)-1H-indol-3-yl)-6-(1,3,5-trimethyl-1H-pyrazol-4-yl)-3,4-dihydropyrazino[1,2-a]indol-1(2H)-one]: the Ki on Mcl-1 was determined as 0.0026 µM. In addition, the GI50 in test [1] (setting [2]) was 0.54 µM.
Consider `Cc1cc(OCCCc2c3n(c4c(-c5c(C)nn(C)c5C)c(Cl)ccc24)[C@H](C)CN(c2cn(Cc4ccccn4)c4cc(C(=O)O)ccc24)C3=O)cc(C)c1Cl` [Example 338, (R)-3-(7-Chloro-10-(3-(4-chloro-3,5-dimethylphenoxy)propyl)-4-methyl-1-oxo-6-(1,3,5-trimethyl-1H-pyrazol-4-yl)-3,4-dihydropyrazino[1,2-a]indol-2(1H)-yl)-1-(pyridin-2-ylmethyl)-1H-indole-6-carboxylic acid], for which, on Mcl-1, the Ki is under 0.001 µM. Also, in test [1] (setting [2]), the GI50 is 2 µM.
Take `Cc1cc(N2C[C@@H](C)n3c(c(CCCOc4cc(C)c(Cl)c(C)c4)c4ccc(Cl)c(-c5c(C)ncnc5C)c43)C2=O)c2c(c1)c(C)c(C(=O)O)n2C` [Example 339, (R)-7-(7-Chloro-10-(3-(4-chloro-3,5-dimethylphenoxy)propyl)-6-(4,6-dimethylpyrimidin-5-yl)-4-methyl-1-oxo-3,4-dihydropyrazino[1,2-a]indol-2(1H)-yl)-1,3,5-trimethyl-1H-indole-2-carboxylic acid]: on Mcl-1, the Ki is under 0.001 µM. Also, in test [1] (setting [2]), the GI50 was 0.32 µM.
With `Cc1cc(OCCCc2c3n(c4c(-c5c(C)nn(C)c5C)c(Cl)ccc24)[C@H](C)CN(c2cn(CCN(C)C)c4cc(C(=O)O)ccc24)C3=O)cc(C)c1Cl` [Example 340, (R)-3-(7-Chloro-10-(3-(4-chloro-3,5-dimethylphenoxy)propyl)-4-methyl-1-oxo-6-(1,3,5-trimethyl-1H-pyrazol-4-yl)-3,4-dihydropyrazino[1,2-a]indol-2(1H)-yl)-1-(2-(dimethylamino)ethyl)-1H-indole-6-carboxylic acid], the Ki on Mcl-1 was 0.0044 µM. For the same compound, the GI50 in test [1] (setting [2]) came to 1.8 µM.
As for `Cc1cc(OCCCc2c3n(c4c(-c5c(C)nn(C)c5C)c(Cl)ccc24)[C@H](C)CN(c2cccc4cc(-c5nnco5)n(C)c24)C3=O)cc(C)c1Cl` [Example 341, (R)-7-Chloro-10-(3-(4-chloro-3,5-dimethylphenoxy)propyl)-4-methyl-2-(1-methyl-2-(1,3,4-oxadiazol-2-yl)-1H-indol-7-yl)-6-(1,3,5-trimethyl-1H-pyrazol-4-yl)-3,4-dihydropyrazino[1,2-a]indol-1(2H)-one], the Ki at Mcl-1 is 0.0042 µM. Besides, the GI50 in test [1] (setting [2]) was 0.92 µM.
Regarding `COc1cc(N2C[C@@H](C)n3c(c(CCCOc4cc(C)c(Cl)c(C)c4)c4ccc(Cl)c(-c5c(C)nn(C)c5C)c43)C2=O)c2c(c1)cc(C(=O)O)n2C` [Example 342, (R)-7-(7-Chloro-10-(3-(4-chloro-3,5-dimethylphenoxy)propyl)-4-methyl-1-oxo-6-(1,3,5-trimethyl-1H-pyrazol-4-yl)-3,4-dihydropyrazino[1,2-a]indol-2(1H)-yl)-5-methoxy-1-methyl-1H-indole-2-carboxylic acid], the Ki on Mcl-1 was under 0.001 µM. For the same compound, the GI50 in test [1] (setting [2]) amounted to 0.23 µM.
In the same order, the values of `Cc1cc(OCCCc2c3n(c4c(-c5c(C)nn(C)c5C)c(Cl)ccc24)[C@H](C)CN(c2cn(C)c4cc(-c5nnco5)ccc24)C3=O)cc(C)c1Cl` [Example 343, (R)-7-Chloro-10-(3-(4-chloro-3,5-dimethylphenoxy)propyl)-4-methyl-2-(1-methyl-6-(1,3,4-oxadiazol-2-yl)-1H-indol-3-yl)-6-(1,3,5-trimethyl-1H-pyrazol-4-yl)-3,4-dihydropyrazino[1,2-a]indol-1(2H)-one] are 0.0037 µM and 3.6 µM.
For the compound `COc1ccc(N2C[C@@H](C)n3c(c(CCCOc4cc(C)c(Cl)c(C)c4)c4ccc(Cl)c(-c5c(C)nn(C)c5C)c43)C2=O)c2cc(C(=O)O)n(C)c12` [Example 344, (M, R)-4-(7-Chloro-10-(3-(4-chloro-3,5-dimethylphenoxy)propyl)-4-methyl-1-oxo-6-(1,3,5-trimethyl-1H-pyrazol-4-yl)-3,4-dihydropyrazino[1,2-a]indol-2(1H)-yl)-7-methoxy-1-methyl-1H-indole-2-carboxylic acid], the Ki at Mcl-1 was under 0.001 µM. In addition, the GI50 in test [1] (setting [3]) was determined as 1.3 µM.
In the case of `Cc1cc(OCCCc2c3n(c4c(-c5c(C)nn(C)c5C)c(Cl)ccc24)[C@H](C)CN(c2cc(OCc4ccccc4)cc4cc(C(=O)O)n(C)c24)C3=O)cc(C)c1Cl` [Example 345, (P, R)-5-(Benzyloxy)-7-(7-chloro-10-(3-(4-chloro-3,5-dimethylphenoxy)propyl)-4-methyl-1-oxo-6-(1,3,5-trimethyl-1H-pyrazol-4-yl)-3,4-dihydropyrazino[1,2-a]indol-2(1H)-yl)-1-methyl-1H-indole-2-carboxylic acid], the Ki at Mcl-1 is 0.0035 µM. Moreover, the GI50 in test [1] (setting [3]) stood at 1.8 µM.
As for `Cc1cc(OCCCc2c3n(c4c(-c5c(C)nn(C)c5C)c(Cl)ccc24)[C@H](C)CN(c2cn(C)c4ccc(-c5nnco5)cc24)C3=O)cc(C)c1Cl` [Example 346, (R)-7-Chloro-10-(3-(4-chloro-3,5-dimethylphenoxy)propyl)-4-methyl-2-(1-methyl-5-(1,3,4-oxadiazol-2-yl)-1H-indol-3-yl)-6-(1,3,5-trimethyl-1H-pyrazol-4-yl)-3,4-dihydropyrazino[1,2-a]indol-1(2H)-one], the Ki at Mcl-1 worked out at 0.0051 µM. The GI50 in test [1] (setting [2]) was found to be 1.6 µM.
In the case of `Cc1cc(OCCCc2c3n(c4c(-c5c(C)nn(C)c5C)c(Cl)ccc24)[C@H](C)CN(c2cccc4c2cc(-c2nnco2)n4C)C3=O)cc(C)c1Cl` [Example 347, (R)-7-Chloro-10-(3-(4-chloro-3,5-dimethylphenoxy)propyl)-4-methyl-2-(1-methyl-2-(1,3,4-oxadiazol-2-yl)-1H-indol-4-yl)-6-(1,3,5-trimethyl-1H-pyrazol-4-yl)-3,4-dihydropyrazino[1,2-a]indol-1(2H)-one], the Ki on Mcl-1 worked out at 0.0036 µM. Moreover, the GI50 in test [1] (setting [2]) worked out at 1.9 µM.
On to `Cc1cc(OCCCc2c3n(c4c(-c5c(C)nn(C)c5C)c(Cl)ccc24)[C@H](C)CN(c2cn(C)c4cc(F)c(C(=O)O)cc24)C3=O)cc(C)c1Cl` [Example 348, (P, R)-3-(7-Chloro-10-(3-(4-chloro-3,5-dimethylphenoxy)propyl)-4-methyl-1-oxo-6-(1,3,5-trimethyl-1H-pyrazol-4-yl)-3,4-dihydropyrazino[1,2-a]indol-2(1H)-yl)-6-fluoro-1-methyl-1H-indole-5-carboxylic acid], for which, at Mcl-1, the Ki was found to be 0.0018 µM. The GI50 in test [1] (setting [3]) came out at 1.3 µM.
For `Cc1cc(OCCCc2c3n(c4c(-c5c(C)nn(C)c5C)c(Cl)ccc24)[C@H](C)CN(c2cccc4ccc(C(=O)O)cc24)C3=O)cc(C)c1Cl` [Example 349, (M, R)-8-(7-Chloro-10-(3-(4-chloro-3,5-dimethylphenoxy)propyl)-4-methyl-1-oxo-6-(1,3,5-trimethyl-1H-pyrazol-4-yl)-3,4-dihydropyrazino[1,2-a]indol-2(1H)-yl)-2-naphthoic acid], the Ki at Mcl-1 is 0.0028 µM. Further, the GI50 in test [1] (setting [3]) was determined as 0.78 µM.
In the case of `Cc1cc(OCCCc2c3n(c4c(-c5c(C)nn(C)c5C)c(Cl)ccc24)[C@H](C)CN(c2cn(C)c4ccc(-c5nnn(C)n5)cc24)C3=O)cc(C)c1Cl` [Example 350, (R)-7-Chloro-10-(3-(4-chloro-3,5-dimethylphenoxy)propyl)-4-methyl-2-(1-methyl-5-(2-methyl-2H-tetrazol-5-yl)-1H-indol-3-yl)-6-(1,3,5-trimethyl-1H-pyrazol-4-yl)-3,4-dihydropyrazino[1,2-a]indol-1(2H)-one], the inhibition constant (Ki) at Mcl-1 is under 0.001 µM. The GI50 in test [1] (setting [2]) amounted to 0.3 µM.
Regarding `Cc1cc(OCCCc2c3n(c4c(-c5c(C)nn(C)c5C)c(Cl)ccc24)[C@H](C)CN(c2cccc4c2cc(C(=O)O)n4Cc2ccccn2)C3=O)cc(C)c1Cl` [Example 352, (R)-4-(7-chloro-10-(3-(4-chloro-3,5-dimethylphenoxy)propyl)-4-methyl-1-oxo-6-(1,3,5-trimethyl-1H-pyrazol-4-yl)-3,4-dihydropyrazino[1,2-a]indol-2(1H)-yl)-1-(pyridin-2-ylmethyl)-1H-indole-2-carboxylic acid], the Ki at Mcl-1 came to 0.0028 µM. In addition, in test [1] (setting [2]), the GI50 came out at 5.1 µM.

By Ki is commonly meant the dissociation constant of the complex between target and ligand, obtained from inhibition or displacement.
